Values of other authors as cited in patent publication US20250339420A1, “ANILINE-DERIVATIVE-CONTAINING EXTERNAL PREPARATION FOR SKIN” (KINOPHARMA, INC., priority 2022, published 2025).

Experiments:
[1] = test system: E6 and E7 genes of human papillomavirus (HPV)

In the case of Fc1ccc(N2CCCCC2)c(NC(=S)c2ccncc2)c1 [Compound I-a, N-[5-fluoro-2-(1-piperidinyl)phenyl]-4-pyridinethioamide], the “effect on p53 gene” value (p53 gene) is listed as “stabilizes p53 gene”, the “antiviral activity against papillomavirus” value (papillomavirus) is listed as “exhibits antiviral activity” and the “expression of E6 and E7 genes of human papillomavirus (HPV)” value [1] is listed as “suppresses expression”.
